Test results reported in PMC7405012, “Detection of Chaetomium globosum, Ch. cochliodes and Ch. rectangulare during the Diversity Tracking of Mycotoxin-Producing Chaetomium-like Isolates Obtained in Buildings in Finland” (Toxins, 2020).
≈ marks a conversion by molar mass, not a printed value. Like-named read-outs stand apart in the source and are kept apart here.

Legend:
[1] = tested on: Outdoor T. atroviride SZMC 12541; assay: Resistance to biocides: conidial germination; format: cell-based, Trichoderma atroviride; settings: strain SZMC 12541, outdoor T. atroviride
Procedure: (§1) The toxicity of biocides and chemicals towards the indoor Chaetomium-like isolates and the reference indoor strains of the genera Aspergillus, Paecilomyces, Penicillium and Trichoderma was assessed in parallel with the six parameters presented in the Supplementary Materials: (1) germ tube assay (Figure S3); (2) estimation of turbidity (Figure S4); (3) visual emission of fluorescence (excitation at 360 nm); (4) visual resporulation of conidia; (5) inhibition of glucose consumption; and (6) resazurin reduction. All assays were performed in malt extract broth (12 g L^−1 malt extract, 7.2 µmol mL^−1 glucose, pH 5.5; Scharlab, Barcelona, Spain) in 96-well microtiter plates as described for the ICP assay.
(§2) The assays measuring inhibition of germination of conidia were done with spore suspensions of 1–2 × 10^6 fungal spores mL−^1. The tests were performed in malt extract broth (Oxoid, Hampshire United Kingdom) 12 g in 1 L, pH 5.5, glucose 7.1 mmol L^−1, and performed on microtiter plates as described by Bencsik et al. for the ICP assay. The germ tube germination is visualized in Figure S3, and the tests estimating turbidity and emission of fluorescence provoked by the germinated and metabolically active conidia and C. globosum ascospores are visualized in Figures S4 and S5. Examples of the tests estimating fluorescence emission, turbidity and re-sporulation of conidia and ascospores are compared in Figure S5. The difference of the endpoints measured with the different assays was between […]. The resazurin reduction assays (Figure S6) were performed as described for the ICP assay, except that the microtiter plates were visually inspected for the change of the blue/violet color of resazurin (indicating inhibition of germination of the exposed conidia) to the […] (indicating metabolic activity and germination of the exposed conidia).
(§3) The formation of germ tubes was inspected by a phase-contrast microscope (Olympus CKX41, Tokyo, Japan; magnification 400×) and an image recording software (Cellsense® standard version 11.0.06, Olympus Soft Imaging Solutions GmbH, Münster, Germany, 2012) after 1 and 2 days of incubation at 28 °C. The EC50 corresponded to the inhibition of 50% (estimated as the concentration between EC0 and EC100) of the conidia compared to the ethanol control (the growth medium containing 1% of ethanol). The tests were run in triplicate and calibrated with triclosan (CAS: 3380-34-5; Sigma Chemical Co., St. Louis, MO, USA) giving a mean SD of ±<20%.

[2] = tested on: Outdoor T. atroviride SZMC 12516; assay: Resistance to biocides: conidial germination; format: cell-based, Trichoderma atroviride; settings: strain SZMC 12516, outdoor T. atroviride
Procedure: as §1, §2, §3

[3] = tested on: Outdoor Chaetomium-like strain CH1/tu; assay: Resistance to biocides: ascospore germination; format: cell-based, Unidentified Chaetomium-like strain
Procedure: as §1
The assays measuring inhibition of germination of conidia were done with spore suspensions of 1–2 × 10^6 fungal spores mL−^1. […] The germ tube germination is visualized in Figure S3, and the tests estimating turbidity and emission of fluorescence provoked by the germinated and metabolically active conidia and C. globosum ascospores are visualized in Figures S4 and S5. Examples of the tests estimating fluorescence emission, turbidity and re-sporulation of conidia and ascospores are compared in Figure S5. The difference of the endpoints measured with the different assays was between 38% and <28.5%. […]

Ch. rectangulare Mo13 = assay: Resistance to biocides: ascospore germination; format: cell-based
Procedure: as §1, §2, §3

Ch. globosum MTAV35 = assay: Resistance to biocides: ascospore germination; format: cell-based, Chaetomium globosum; settings: strain MTAV35, indoor Ch. globosum, median of four independent measurements with five methods
Procedure: as §1, §2, §3

Ch. globosum C22/LM = assay: Resistance to biocides: ascospore germination; format: cell-based, Chaetomium globosum; settings: strain C22/LM, indoor Ch. globosum
Procedure: as §1, §2, §3

Ch. globosum 2b/26 = assay: Resistance to biocides: ascospore germination; format: cell-based, Chaetomium globosum; settings: strain 2b/26, indoor Ch. globosum
Procedure: as §1, §2, §3

Ch. globosum RUK10 = assay: Resistance to biocides: ascospore germination; format: cell-based, Chaetomium globosum; settings: strain RUK10, indoor Ch. globosum
Procedure: as §1, §2, §3

Ch. globosum ABCD = assay: Resistance to biocides: ascospore germination; format: cell-based, Chaetomium globosum; settings: strain ABCD, indoor Ch. globosum
Procedure: as §1, §2, §3

Ch. globosum MTAV37 = assay: Resistance to biocides: ascospore germination; format: cell-based, Chaetomium globosum; settings: strain MTAV37, indoor Ch. globosum
Procedure: as §1, §2, §3

Ch. globosum HAS5 = assay: Resistance to biocides: ascospore germination; format: cell-based, Chaetomium globosum; settings: strain HAS5, indoor Ch. globosum
Procedure: as §1, §2, §3

Ch. globosum 3b/AP = assay: Resistance to biocides: ascospore germination; format: cell-based, Chaetomium globosum; settings: strain 3b/AP, indoor Ch. globosum
Procedure: as §1, §2, §3

Ch. globosum MH 52 = assay: Resistance to biocides: ascospore germination; format: cell-based, Chaetomium globosum; settings: strain MH 52, indoor Ch. globosum
Procedure: as §1, §2, §3

Ch. globosum MO9 = assay: Resistance to biocides: ascospore germination; format: cell-based, Chaetomium globosum; settings: strain MO9, indoor Ch. globosum
Procedure: as §1, §2, §3

Ch. globosum 2c/MT = assay: Resistance to biocides: ascospore germination; format: cell-based, Chaetomium globosum; settings: strain 2c/MT, indoor Ch. globosum
Procedure: as §1, §2, §3

[4] = Trichoderma atroviride, read-out: EC50
[5] = Chaetomium globosum, read-out: EC50
[6] = Chaetomium globosum, MH52, read-out: EC50

## O=BOB(O)OB(O)OB=O [Borax, sodium tetraborate]
[1]; [4]
  EC50: 1200 µg/mL
[2]; [4]
  EC50: 2500 µg/mL
[3]; read-out: EC50
  EC50: 1200 µg/mL
Ch. rectangulare Mo13
  EC50: > 5000 µg/mL
Ch. globosum MTAV35; [5]
  EC50: 5000 µg/mL
Ch. globosum C22/LM; [5]
  EC50: > 5000 µg/mL
Ch. globosum 2b/26; [5]
  EC50: > 5000 µg/mL
Ch. globosum RUK10; [5]
  EC50: 5000 µg/mL
Ch. globosum ABCD; [5]
  EC50: 5000 µg/mL
Ch. globosum MTAV37; [5]
  EC50: 5000 µg/mL
Ch. globosum HAS5; [5]
  EC50: > 5000 µg/mL
Ch. globosum 3b/AP; [5]
  EC50: > 5000 µg/mL
Ch. globosum MH 52; [6]
  EC50: 5000 µg/mL
Ch. globosum MO9; [5]
  EC50: > 5000 µg/mL
Ch. globosum 2c/MT; [5]
  EC50: > 5000 µg/mL

## NCl [Chloramine, chloramine]
[1]
  EC50: 2500 µg/mL (≈ 48.6 mM)
[2]
  EC50: 2500 µg/mL (≈ 48.6 mM)
Ch. globosum C22/LM
  EC50: 2500 µg/mL (≈ 48.6 mM)
Ch. globosum 2b/26
  EC50: 2500 µg/mL (≈ 48.6 mM)
Ch. globosum RUK10
  EC50: 2500 µg/mL (≈ 48.6 mM)
Ch. globosum HAS5
  EC50: 2500 µg/mL (≈ 48.6 mM)
Ch. globosum 3b/AP
  EC50: 2500 µg/mL (≈ 48.6 mM)
Ch. globosum MO9
  EC50: 2500 µg/mL (≈ 48.6 mM)
Ch. globosum 2c/MT
  EC50: 2500 µg/mL (≈ 48.6 mM)

## OCCOc1ccccc1 [Phenoxy-ethanol, phenoxyethanol]
[1]; [4]
  EC50: 1500 µg/mL (≈ 10.9 mM)
[2]; [4]
  EC50: 1500 µg/mL (≈ 10.9 mM)
Ch. globosum MTAV35; [5]
  EC50: 700 µg/mL (≈ 5.07 mM)
Ch. globosum C22/LM; [5]
  EC50: 1500 µg/mL (≈ 10.9 mM)
Ch. globosum 2b/26; [5]
  EC50: 1500 µg/mL (≈ 10.9 mM)
Ch. globosum RUK10; [5]
  EC50: 1500 µg/mL (≈ 10.9 mM)
Ch. globosum ABCD; [5]
  EC50: 1500 µg/mL (≈ 10.9 mM)
Ch. globosum MTAV37; [5]
  EC50: 700 µg/mL (≈ 5.07 mM)
Ch. globosum HAS5; [5]
  EC50: 1500 µg/mL (≈ 10.9 mM)
Ch. globosum 3b/AP; [5]
  EC50: 1500 µg/mL (≈ 10.9 mM)
Ch. globosum MH 52; [6]
  EC50: 1500 µg/mL (≈ 10.9 mM)
Ch. globosum MO9; [5]
  EC50: 700 µg/mL (≈ 5.07 mM)
Ch. globosum 2c/MT; [5]
  EC50: 1500 µg/mL (≈ 10.9 mM)

## Oc1cc(Cl)ccc1Oc1ccc(Cl)cc1Cl [Triclosan, 5-Chloro-2-(2,4-dichlorophenoxy)phenol]
[1]; [4]
  EC50: 16 µg/mL (≈ 0.0553 mM)
[2]; [4]
  EC50: 16 µg/mL (≈ 0.0553 mM)
Ch. globosum MTAV35; [5]
  EC50: 2 µg/mL (≈ 0.00691 mM)
Ch. globosum C22/LM; [5]
  EC50: 4 µg/mL (≈ 0.0138 mM)
Ch. globosum 2b/26; [5]
  EC50: 4 µg/mL (≈ 0.0138 mM)
Ch. globosum RUK10; [5]
  EC50: 2 µg/mL (≈ 0.00691 mM)
Ch. globosum ABCD; [5]
  EC50: 4 µg/mL (≈ 0.0138 mM)
Ch. globosum MTAV37; [5]
  EC50: 4 µg/mL (≈ 0.0138 mM)
Ch. globosum HAS5; [5]
  EC50: 2 µg/mL (≈ 0.00691 mM)
Ch. globosum 3b/AP; [5]
  EC50: 4 µg/mL (≈ 0.0138 mM)
Ch. globosum MH 52; [6]
  EC50: 2 µg/mL (≈ 0.00691 mM)
Ch. globosum MO9; [5]
  EC50: 2 µg/mL (≈ 0.00691 mM)
Ch. globosum 2c/MT; [5]
  EC50: 4 µg/mL (≈ 0.0138 mM)

## polyhexamethylene biguanide hydrochloride [PHMB]
[1]
  EC50: 2 µg/mL
[2]
  EC50: 30 µg/mL
[3]
  EC50: 4 µg/mL
Ch. rectangulare Mo13; strain Mo13, indoor Ch. rectangulare
  EC50: 4 µg/mL
Ch. globosum MTAV35
  EC50: 4 µg/mL
Ch. globosum C22/LM
  EC50: 8 µg/mL
Ch. globosum 2b/26
  EC50: 8 µg/mL
Ch. globosum RUK10
  EC50: 4 µg/mL
Ch. globosum ABCD
  EC50: 4 µg/mL
Ch. globosum MTAV37
  EC50: 4 µg/mL
Ch. globosum HAS5
  EC50: 8 µg/mL
Ch. globosum 3b/AP
  EC50: 8 µg/mL
Ch. globosum MH 52
  EC50: 4 µg/mL
Ch. globosum MO9
  EC50: 4 µg/mL
Ch. globosum 2c/MT
  EC50: 8 µg/mL
